In patent publication US12582680B2, “Pharmaceutical composition for prevention, amelioration, or treatment of skin disease” (priority 2019, dated 2026):

Assays:
SPF-Tmem79-KO mouse = assay: Antibiotic in drinking water, dermatitis clinical scores of SPF-Tmem79-KO mouse; format: in vivo; settings: 200 mg/mL in drinking water; FIG. 9B
Procedure: For the SPF-Tmem79-KO mouse and the control (SPF-WT mice), the clinical scores were evaluated on a 4-point scale of 0: normal, 1: mild, 2: moderate, and 3: severe for each of the four items of erythema, edema, erosion, and dryness. The degree of inflammation in the skin was evaluated by using the total value of the clinical scores of the four items. In the drawing, the SPF-Tmem79-KO mouse is described as “SPF Tmem79^−/−”, and the SPF-WT mouse is described as “SPF WT”. It can be understood that the SPF-Tmem79-KO mouse developed bimodal dermatitis.
Ampicillin (manufactured by NACALAI TESQUE, INC.) or fusidic acid (manufactured by Sigma-Aldrich Co. LLC.) was suspended in drinking water so as to be 200 mg/mL and the resultant drinking water was administered to the SPF-Tmem79-KO mouse, and the clinical scores were obtained with time.

S. cohnii = assay: Sensitivity to antibiotics, culture of skin bacteria in media containing antibiotics, number of colonies; format: cell-based; settings: FIGS. 9C and 9E
Description: (§1) FIG. 9A is a schematic diagram showing an experimental flow. FIG. 9B is a graph that indicates changes over time of clinical scores in the skins of SPF-Tmem79^−/− mice inoculated with ampicillin (Amp) or fusidic acid (FA) being an antibiotic (ABx).
(§2) Further, the sensitivity of S. aureus and S. cohnii to both antibiotics was verified by using the antibiotics. The proliferation of S. aureus was suppressed by any one of the ampicillin and the fusidic acid (FIGS. 9C and 9D).

S. aureus = assay: as above; format: cell-based; settings: FIGS. 9C and 9D
Description: as §1, §2

[1] = system: GF-WT mouse applied with imiquimod; assay: Imiquimod-initiated inflammation in GF-WT mouse, squalene and mifepristone; format: in vivo
Procedure: Imiquimod (Beselna cream, manufactured by MOCHIDA PHARMACEUTICAL CO., LTD.) was applied onto the ears of a GF-WT mouse at a dose of 50 mg per mouse once a day for 5 consecutive days.
Further, in another group of mice, mifepristone (M8046-1G, manufactured by Sigma-Aldrich Co. LLC) was administered to the mice freely at 210 μg/mL in drinking water during the experimental period.

[2] = mifepristone 210 μg/mL in drinking water

Structure (SMILES) | degree of dermatitis (clinical scores) (SPF-Tmem79-KO mouse) | proliferation of S. cohnii (S. cohnii) | proliferation of S. aureus (S. aureus) | suppression of imiquimod-initiated inflammation by S. cohnii, effect of mifepristone [1, 2] | suppression of imiquimod-initiated inflammation by squalene, effect of mifepristone [1, 2] | imiquimod-initiated inflammation (ear swelling and lymph node swelling) ([1]; S. cohnii 2.0×10^7 CFU first 3 days, squalene 200 μl per mouse for 5 days, FIGS. 22B and 22C)
CC1(C)S[C@@H]2[C@H](NC(=O)[C@H](N)c3ccccc3)C(=O)N2[C@H]1C(=O)O [ampicillin] | alleviation of the dermatitis was not observed | significantly suppressed | suppressed |  |  | 
CC(=O)O[C@H]1C[C@@]2(C)[C@@H](C[C@@H](O)[C@H]3[C@@]4(C)CC[C@@H](O)[C@@H](C)[C@@H]4CC[C@@]32C)/C1=C(\CCC=C(C)C)C(=O)O [fusidic acid] | alleviated | not suppressed | suppressed |  |  | 
CC#C[C@]1(O)CC[C@H]2[C@@H]3CCC4=CC(=O)CCC4=C3[C@@H](c3ccc(N(C)C)cc3)C[C@@]21C [mifepristone] |  |  |  | inhibited | inhibition of suppressive effect | 
CC(C)=CCC/C(C)=C/CC/C(C)=C/CC/C=C(\C)CC/C=C(\C)CCC=C(C)C [squalene] |  |  |  |  |  | almost the same as that of S. cohnii
